Measurements reported in ChEMBL document CHEMBL3046418, “Synthesis and Herbicidal Activity of Sulfonylurea Compounds with Imidazo [1, 2-a] pyridine Moiety” (2001).

How the values were obtained:
Type in all cases: functional
Chenopodium album [1] = test: Herbicidal activity against Chenopodium album at 100 g/ha after 3 weeks by post-emergence greenhouse test
Alopecurus myosuroides [2] = test: Herbicidal activity against Alopecurus myosuroides after 3 weeks by post-emergence greenhouse test; set-up: concentration or dose not given beside the values
Alopecurus myosuroides [3] = test: Herbicidal activity against Alopecurus myosuroides at 400 g/ha after 3 weeks by post-emergence greenhouse test
Avena fatua [4] = test: Herbicidal activity against Avena fatua after 3 weeks by post-emergence greenhouse test; set-up: concentration or dose not given beside the values
Matricaria chamomilla [5] = test: Herbicidal activity against Matricaria chamomilla after 3 weeks by post-emergence greenhouse test; set-up: concentration or dose not given beside the values
Bromus tectorum [6] = test: Herbicidal activity against Bromus tectorum at 100 g/ha after 3 weeks by post-emergence greenhouse test
Alopecurus myosuroides [7] = test: Herbicidal activity against Alopecurus myosuroides after 4 weeks by pre-emergence greenhouse test; set-up: concentration or dose not given beside the values
Stellaria media [8] = test: Herbicidal activity against Stellaria media at 400 g/ha after 3 weeks by post-emergence greenhouse test
Bromus tectorum [9] = test: Herbicidal activity against Bromus tectorum after 4 weeks by pre-emergence greenhouse test; set-up: concentration or dose not given beside the values
Avena fatua [10] = test: Herbicidal activity against Avena fatua at 100 g/ha after 3 weeks by post-emergence greenhouse test
Avena fatua [11] = test: Herbicidal activity against Avena fatua at 25 g/ha after 3 weeks by post-emergence greenhouse test
Mutarda arvensis [12] = test: Herbicidal activity against Sinapis arvensis after 3 weeks by post-emergence greenhouse test; set-up: concentration or dose not given beside the values
Triticum aestivum [13] = test: Phytotoxic activity against Triticum aestivum (wheat) after 3 weeks by post-emergence greenhouse test; set-up: concentration or dose not given beside the values
Triticum aestivum [14] = test: Phytotoxic activity against Triticum aestivum (wheat) at 400 g/ha after 3 weeks by post-emergence greenhouse test
Mutarda arvensis [15] = test: Herbicidal activity against Sinapis arvensis after 4 weeks by pre-emergence greenhouse test; set-up: concentration or dose not given beside the values
Stellaria media [16] = test: Herbicidal activity against Stellaria media at 25 g/ha after 3 weeks by post-emergence greenhouse test
Alopecurus myosuroides [17] = test: Herbicidal activity against Alopecurus myosuroides at 100 g/ha after 3 weeks by post-emergence greenhouse test
Chenopodium album [18] = test: Herbicidal activity against Chenopodium album at 25 g/ha after 3 weeks by post-emergence greenhouse test
Stellaria media [19] = test: Herbicidal activity against Stellaria media after 4 weeks by pre-emergence greenhouse test; set-up: concentration or dose not given beside the values
Chenopodium album [20] = test: Herbicidal activity against Chenopodium album after 4 weeks by pre-emergence greenhouse test; set-up: concentration or dose not given beside the values
Triticum aestivum [21] = test: Phytotoxic activity against Triticum aestivum (wheat) after 4 weeks by pre-emergence greenhouse test
Mutarda arvensis [22] = test: Herbicidal activity against Sinapis arvensis at 400 g/ha after 3 weeks by post-emergence greenhouse test
Triticum aestivum [23] = test: Phytotoxic activity against Triticum aestivum (wheat) at 25 g/ha after 3 weeks by post-emergence greenhouse test
Matricaria chamomilla [24] = test: Herbicidal activity against Matricaria chamomilla at 100 g/ha after 3 weeks by post-emergence greenhouse test
Mutarda arvensis [25] = test: Herbicidal activity against Sinapis arvensis at 25 g/ha after 3 weeks by post-emergence greenhouse test
Alopecurus myosuroides [26] = test: Herbicidal activity against Alopecurus myosuroides at 25 g/ha after 3 weeks by post-emergence greenhouse test
Bromus tectorum [27] = test: Herbicidal activity against Bromus tectorum after 3 weeks by post-emergence greenhouse test; set-up: concentration or dose not given beside the values
Avena fatua [28] = test: Herbicidal activity against Avena fatua at 400 g/ha after 3 weeks by post-emergence greenhouse test
Chenopodium album [29] = test: Herbicidal activity against Chenopodium album after 3 weeks by post-emergence greenhouse test; set-up: concentration or dose not given beside the values
Triticum aestivum [30] = test: Phytotoxic activity against Triticum aestivum (wheat) at 100 g/ha after 3 weeks by post-emergence greenhouse test
Stellaria media [31] = test: Herbicidal activity against Stellaria media at 100 g/ha after 3 weeks by post-emergence greenhouse test
Bromus tectorum [32] = test: Herbicidal activity against Bromus tectorum at 400 g/ha after 3 weeks by post-emergence greenhouse test
Matricaria chamomilla [33] = test: Herbicidal activity against Matricaria chamomilla after 4 weeks by pre-emergence greenhouse test; set-up: concentration or dose not given beside the values
Stellaria media [34] = test: Herbicidal activity against Stellaria media after 3 weeks by post-emergence greenhouse test; set-up: concentration or dose not given beside the values
Chenopodium album [35] = test: Herbicidal activity against Chenopodium album at 400 g/ha after 3 weeks by post-emergence greenhouse test
Matricaria chamomilla [36] = test: Herbicidal activity against Matricaria chamomilla at 25 g/ha after 3 weeks by post-emergence greenhouse test
Bromus tectorum [37] = test: Herbicidal activity against Bromus tectorum at 25 g/ha after 3 weeks by post-emergence greenhouse test
Matricaria chamomilla [38] = test: Herbicidal activity against Matricaria chamomilla at 400 g/ha after 3 weeks by post-emergence greenhouse test
Mutarda arvensis [39] = test: Herbicidal activity against Sinapis arvensis at 100 g/ha after 3 weeks by post-emergence greenhouse test
Avena fatua [40] = test: Herbicidal activity against Avena fatua after 4 weeks by pre-emergence greenhouse test; set-up: concentration or dose not given beside the values
Bromus tectorum [41] = test: Herbicidal activity against Bromus tectorum at 250 g/ha after 3 weeks by post-emergence greenhouse test
Mutarda arvensis [42] = test: Herbicidal activity against Sinapis arvensis at 125 g/ha after 3 weeks by post-emergence greenhouse test
Mutarda arvensis [43] = test: Herbicidal activity against Sinapis arvensis at 250 g/ha after 3 weeks by post-emergence greenhouse test
Alopecurus myosuroides [44] = test: Herbicidal activity against Alopecurus myosuroides at 250 g/ha after 3 weeks by post-emergence greenhouse test
Stellaria media [45] = test: Herbicidal activity against Stellaria media at 500 g/ha after 3 weeks by post-emergence greenhouse test
Matricaria chamomilla [46] = test: Herbicidal activity against Matricaria chamomilla at 500 g/ha after 3 weeks by post-emergence greenhouse test
Avena fatua [47] = test: Herbicidal activity against Avena fatua at 125 g/ha after 3 weeks by post-emergence greenhouse test
Matricaria chamomilla [48] = test: Herbicidal activity against Matricaria chamomilla at 125 g/ha after 3 weeks by post-emergence greenhouse test
Mutarda arvensis [49] = test: Herbicidal activity against Sinapis arvensis at 500 g/ha after 3 weeks by post-emergence greenhouse test
Avena fatua [50] = test: Herbicidal activity against Avena fatua at 250 g/ha after 3 weeks by post-emergence greenhouse test
Triticum aestivum [51] = test: Phytotoxic activity against Triticum aestivum (wheat) at 500 g/ha after 3 weeks by post-emergence greenhouse test
Avena fatua [52] = test: Herbicidal activity against Avena fatua at 500 g/ha after 3 weeks by post-emergence greenhouse test
Bromus tectorum [53] = test: Herbicidal activity against Bromus tectorum at 125 g/ha after 3 weeks by post-emergence greenhouse test
Stellaria media [54] = test: Herbicidal activity against Stellaria media at 250 g/ha after 3 weeks by post-emergence greenhouse test
Matricaria chamomilla [55] = test: Herbicidal activity against Matricaria chamomilla at 250 g/ha after 3 weeks by post-emergence greenhouse test
Triticum aestivum [56] = test: Phytotoxic activity against Triticum aestivum (wheat) at 125 g/ha after 3 weeks by post-emergence greenhouse test
Bromus tectorum [57] = test: Herbicidal activity against Bromus tectorum at 500 g/ha after 3 weeks by post-emergence greenhouse test
Triticum aestivum [58] = test: Phytotoxic activity against Triticum aestivum (wheat) at 250 g/ha after 3 weeks by post-emergence greenhouse test
Alopecurus myosuroides [59] = test: Herbicidal activity against Alopecurus myosuroides at 500 g/ha after 3 weeks by post-emergence greenhouse test
Alopecurus myosuroides [60] = test: Herbicidal activity against Alopecurus myosuroides at 125 g/ha after 3 weeks by post-emergence greenhouse test
Stellaria media [61] = test: Herbicidal activity against Stellaria media at 125 g/ha after 3 weeks by post-emergence greenhouse test

CCS(=O)(=O)c1nc2ccccn2c1S(=O)(=O)NC(=O)Nc1nc(OC)cc(OC)n1 [SULFOSULFURON]
51%: Activity (Chenopodium album [29]) | Activity (Chenopodium album [35]) | Activity (Avena fatua [40])
0%: Activity (Triticum aestivum [13]) | Phytotoxicity (Triticum aestivum [14]) | Phytotoxicity (Triticum aestivum [21]) | Phytotoxicity (Triticum aestivum [23]) | Activity (Avena fatua [28]) | Phytotoxicity (Triticum aestivum [30])
1%: Activity (Chenopodium album [1]) | Activity (Chenopodium album [18])
88%: Activity (Alopecurus myosuroides [2]) | Activity (Alopecurus myosuroides [3]) | Activity (Avena fatua [4]) | Activity (Matricaria chamomilla [5]) | Activity (Bromus tectorum [6]) | Activity (Alopecurus myosuroides [7]) | Activity (Stellaria media [8]) | Activity (Bromus tectorum [9]) | Activity (Avena fatua [10]) | Activity (Avena fatua [11]) | Activity (Mutarda arvensis [12]) | Activity (Mutarda arvensis [15]) | Activity (Stellaria media [16]) | Activity (Alopecurus myosuroides [17]) | Activity (Stellaria media [19]) | Activity (Chenopodium album [20]) | Activity (Mutarda arvensis [22]) | Activity (Matricaria chamomilla [24]) | Activity (Mutarda arvensis [25]) | Activity (Alopecurus myosuroides [26]) | Activity (Bromus tectorum [27]) | Activity (Stellaria media [31]) | Activity (Bromus tectorum [32]) | Activity (Matricaria chamomilla [33]) | Activity (Stellaria media [34]) | Activity (Matricaria chamomilla [36]) | Activity (Bromus tectorum [37]) | Activity (Matricaria chamomilla [38]) | Activity (Mutarda arvensis [39])

CSc1nnc(C(C)(C)C)c(=O)n1N [METRIBUZIN]
51%: Activity (Alopecurus myosuroides [44]) | Activity (Matricaria chamomilla [48]) | Activity (Alopecurus myosuroides [60])
76%: Activity (Avena fatua [52])
1%: Activity (Bromus tectorum [41]) | Activity (Avena fatua [50]) | Phytotoxicity (Triticum aestivum [51]) | Activity (Bromus tectorum [53]) | Phytotoxicity (Triticum aestivum [58])
88%: Activity (Bromus tectorum [57]) | Activity (Stellaria media [61])
100%: Activity (Mutarda arvensis [42]) | Activity (Mutarda arvensis [43]) | Activity (Stellaria media [45]) | Activity (Matricaria chamomilla [46]) | Activity (Mutarda arvensis [49]) | Activity (Stellaria media [54]) | Activity (Matricaria chamomilla [55]) | Activity (Alopecurus myosuroides [59])
0%: Activity (Avena fatua [47]) | Phytotoxicity (Triticum aestivum [56])

CCCS(=O)(=O)c1nc2ccccn2c1S(=O)(=O)NC(=O)Nc1nc(OC)cc(OC)n1
51%: Activity (Matricaria chamomilla [5]) | Activity (Mutarda arvensis [15]) | Activity (Bromus tectorum [27])
1%: Activity (Avena fatua [4]) | Activity (Bromus tectorum [9])
0%: Activity (Triticum aestivum [13]) | Activity (Chenopodium album [20]) | Phytotoxicity (Triticum aestivum [21]) | Activity (Chenopodium album [29]) | Activity (Avena fatua [40])
76%: Activity (Alopecurus myosuroides [2]) | Activity (Alopecurus myosuroides [7]) | Activity (Mutarda arvensis [12]) | Activity (Stellaria media [19]) | Activity (Stellaria media [34])
88%: Activity (Matricaria chamomilla [33])

CCS(=O)(=O)c1nc2ccccn2c1S(=O)(=O)NC(=O)Nc1nc(C)cc(C)n1
51%: Activity (Alopecurus myosuroides [2]) | Activity (Avena fatua [4]) | Activity (Mutarda arvensis [15]) | Activity (Bromus tectorum [27]) | Activity (Chenopodium album [29])
0%: Activity (Alopecurus myosuroides [7]) | Activity (Stellaria media [19]) | Phytotoxicity (Triticum aestivum [21]) | Activity (Avena fatua [40])
76%: Activity (Mutarda arvensis [12])
1%: Activity (Matricaria chamomilla [5]) | Activity (Bromus tectorum [9]) | Activity (Triticum aestivum [13]) | Activity (Chenopodium album [20]) | Activity (Matricaria chamomilla [33]) | Activity (Stellaria media [34])

COc1cc(OC)nc(NC(=O)NS(=O)(=O)c2c(S(C)(=O)=O)nc3ccccn23)n1
76%: Activity (Alopecurus myosuroides [2]) | Activity (Alopecurus myosuroides [7]) | Activity (Bromus tectorum [9]) | Activity (Bromus tectorum [27]) | Activity (Stellaria media [34])
1%: Activity (Avena fatua [4]) | Activity (Triticum aestivum [13]) | Activity (Chenopodium album [20]) | Activity (Chenopodium album [29]) | Activity (Avena fatua [40])
100%: Activity (Mutarda arvensis [15])
0%: Phytotoxicity (Triticum aestivum [21])
51%: Activity (Stellaria media [19])
88%: Activity (Matricaria chamomilla [5]) | Activity (Mutarda arvensis [12]) | Activity (Matricaria chamomilla [33])

COc1cc(OC)nc(NC(=O)NS(=O)(=O)c2c(S(=O)(=O)c3ccccc3)nc3ccccn23)n1
0%: Activity (Alopecurus myosuroides [2]) | Activity (Avena fatua [4]) | Activity (Alopecurus myosuroides [7]) | Activity (Bromus tectorum [9]) | Activity (Triticum aestivum [13]) | Activity (Stellaria media [19]) | Activity (Chenopodium album [20]) | Phytotoxicity (Triticum aestivum [21]) | Activity (Bromus tectorum [27]) | Activity (Chenopodium album [29]) | Activity (Avena fatua [40])
51%: Activity (Mutarda arvensis [12])
1%: Activity (Matricaria chamomilla [5]) | Activity (Mutarda arvensis [15]) | Activity (Matricaria chamomilla [33]) | Activity (Stellaria media [34])
